# The source made the active and inactive calls. The rule behind the calls is not given here.
# How the values were obtained:
# SW480 [1] = test: Antiproliferative activity against human SW480 cells assessed as reduction in cell viability incubated for 48 hrs by MTT assay; assay type: functional, cell-based; details: SW480, 48 h
# HCT-116 [2] = test: Potency index, ratio of 5-FU IC50 to test compound IC50 for antiproliferative activity against human HCT-116 cells; assay type: functional
# SW480 [3] = test: Induction of apoptosis in human SW480 cells assessed as viable cells at 2 uM incubated for 48 hrs by Annexin V-FITC/PI staining based flow cytometry (reference value: 90.56%); assay type: functional; details: read-out: Activity
# SW480 [4] = test: Induction of apoptosis in human SW480 cells assessed as late apoptotic cells at 2 uM incubated for 48 hrs by Annexin V-FITC/PI staining based flow cytometry (reference value: 4.67%); assay type: functional
# SW480 [5] = test: Induction of apoptosis in human SW480 cells assessed as late apoptotic cells at 4 uM incubated for 48 hrs by Annexin V-FITC/PI staining based flow cytometry (reference value: 4.67%); assay type: functional
# SW480 [6] = test: Induction of apoptosis in human SW480 cells assessed as viable cells at 8 uM incubated for 48 hrs by Annexin V-FITC/PI staining based flow cytometry (reference value: 90.56%); assay type: functional; details: read-out: Activity
# SW480 [7] = test: Induction of apoptosis in human SW480 cells assessed as late apoptotic cells at 8 uM incubated for 48 hrs by Annexin V-FITC/PI staining based flow cytometry (reference value: 4.67%); assay type: functional
# SW480 [8] = test: Induction of apoptosis in human SW480 cells assessed as necrotic cells at 8 uM incubated for 48 hrs by Annexin V-FITC/PI staining based flow cytometry (reference value: 2.9%); assay type: functional
# SW480 [9] = test: Induction of apoptosis in human SW480 cells assessed as viable cells at 32 uM incubated for 48 hrs by Annexin V-FITC/PI staining based flow cytometry (reference value: 90.56%); assay type: functional; details: read-out: Activity
# SW480 [10] = test: Induction of apoptosis in human SW480 cells assessed as late apoptotic cells at 32 uM incubated for 48 hrs by Annexin V-FITC/PI staining based flow cytometry (reference value: 4.67%); assay type: functional
# HCT-116 [11] = test: Induction of apoptosis in human HCT-116 cells incubated for 48 hrs by Annexin V-FITC/PI staining based flow cytometry; assay type: functional, cell-based; details: dose 2-32 µM
# SW480 [12] = test: Induction of apoptosis in human SW480 cells assessed as increase in p53 protein expression at 2 to 16 uM incubated for 48 hrs by western blot analysis; assay type: functional, cell-based; details: dose 2-16 µM
# SW480 [13] = test: Induction of mitochondrial membrane potential loss in human SW480 cells assessed as cells with high MMP emitting red fluorescence at 4 uM incubated for 24 hrs by JC-1 staining based flow cytometry (reference value: 64.2%); assay type: functional
# HCT-116 [14] = test: Inhibition of colony formation in human HCT-116 cells at 2 to 8 uM incubated for 48 hrs followed by culture medium replenishment for every 72 hrs and measured after 14 days by crystal violet staining based analysis; assay type: functional, cell-based; details: dose 2-8 µM, time 14.0 day
# SW480 [15] = test: Inhibition of colony formation in human SW480 cells at 2 to 8 uM incubated for 48 hrs followed by culture medium replenishment for every 72 hrs and measured after 14 days by crystal violet staining based analysis; assay type: functional, cell-based; details: dose 2-8 µM, time 14.0 day
# [16] = Half life in human liver microsomes at 0.1 uM preincubated for 10 mins followed by NADPH addition and measured up to 60 mins by LC-MS/MS analysis; assay type: ADME, Microsome; details: time 70 min
# [17] = Acute toxicity in BALB/c mouse assessed as animal survival at 250 mg/kg, ip administered per 4 hrs for 4 times and measured everyday for 14 days (reference value: 100%); assay type: organism-based; details: in vivo, time 14 day
# [18] = Acute toxicity in BALB/c mouse assessed as animal survival at 200 mg/kg, ip administered per 4 hrs for 4 times and measured everyday for 14 days (Rb =100%); assay type: organism-based; details: in vivo, time 14 day
# [19] = Acute toxicity in ip dosed BALB/c mouse administered per 4 hrs for 4 times and measured everyday for 14 days; assay type: organism-based; details: in vivo, time 14 day
# SW480 [20] = test: Antitumor activity against human SW480 cells xenografted in ip dosed BALB/c mouse assessed as reduction in tumor volume administered every 2 days for 12 days; assay type: functional, organism-based; details: dose 25-50 mg/kg, time 12.0 day
# [21] = Toxicity in BALB/c mouse xenografted with human SW480 cells assessed as decrease in body weight at 25 to 50 mg/kg, ip administered every 2 days for 12 days; assay type: organism-based; details: in vivo, 288 h, dose 25-50 mg/kg, time 12 day
smiles,measurement,setting,value
CCCCCCCCCC(CCO)n1cnc2c(Cl)ncnc21 (racemic),IC50,SW480 [1],1150 nM
same,Ratio IC50,HCT-116 [2],10
same,viability at 2 µM,SW480 [3],73.9%
same,Activity,SW480 [4],11.69%
same,Activity,SW480 [5],9.11%
same,viability at 8 µM,SW480 [6],56.5%
same,Activity,SW480 [7],15.47%
same,Activity,SW480 [8],16.97%
same,viability at 32 µM,SW480 [9],26.8%
same,Activity,SW480 [10],13.76%
same,Activity,HCT-116 [11],Dose-Dependent Effect
same,Activity,SW480 [12],Active
same,Activity,SW480 [13],33.67%
same,inhibition,HCT-116 [14],Active
same,inhibition,SW480 [15],Active
same,half-life at 0.1 µM,[16],10.8 min
same,survival at 336 h,[17],20%
same,survival at 336 h,[18],70%
same,LD50 at 336 h,[19],220 mg/kg
same,Activity,SW480 [20],Dose-Dependent Effect
same,Activity,[21],Non-Toxic

# From ChEMBL document CHEMBL4811228, “Design, Synthesis, and Activity Evaluation of Novel Acyclic Nucleosides as Potential Anticancer Agents In Vitro and In Vivo” (J Med Chem, 2021)
